From patent US20200352918A1, “COMPOUNDS AND METHODS FOR TREATING OR PREVENTING FIBROSIS” (priority 2019, published 2020)

Columns and labels:
[1] = test system: bleomycin model of lung injury; test: Bleomycin-induced pulmonary fibrosis in aged mice; type: in vivo
Description: To define the anti-fibrotic effect of AA5, a bleomycin model of lung injury in aged mice was used as a model of lung fibrosis (FIG. 30A). 52-week-old mice were challenged with bleomycin (3 U/kg) by the oropharyngeal route to induce lung injury, followed by systemic administration of AA5 (20 mg/kg) or DMSO, from days 7-21 post bleomycin injury. Naïve mice were maintained as controls. The mice were sacrificed on day 21 and the total collagen content of the lungs was quantified using the hydroxyproline assay. […] The percentage of fibrotic areas from each section was quantified using hematoxylin and eosin staining, tiled and imaged on a Zeiss Axioscope microscope at 2.5× and quantified using the spline contour tool using the ZEN 2011 software.
Naive mice (n=4) without bleomycin were also monitored in the same manner throughout treatment period. […] Data represent min-max and median of collagen content relative to total protein content. ***P<0.001 **P<0.01 using one-way ANOVA and Sidak's multiple comparison test. FIGS. 30C and 30D show a representative H&E section of bleomycin treated lungs with the borders of the lung and fibrotic areas marked using the spline contour tool (FIG. 30C). […] Scale bar, 200 μm. […] Scale bars, 100 μm.

[2] = test system: iFA phenotype of mesenchymal-like cells on 13 kPa hydrogels; test: iFA resolution screen (reversal of fibrosis) in the iFA model; type: cell-based, human
Description: Signal-to-background (S/B) ratio, standard variation and variation coefficients were calculated as the signal of DMSO treated wells divided by the signal of the hit compound (AA5) treated wells. Z′ values were used to measure assay quality which was calculated by the formula of Z′=1−3(SDTotal+SDBackground)/(MeanTotal−MeanBackground)(Inglese et al., 2006) where SDTotal and MeanTotal are the standard deviation and mean of signal for DMSO treated wells, and SDBackground and MeanBackground are the standard deviation and mean of signal for AA5 treated wells. Data normalization and curve fitting were performed as previously reported (Kariv et al., 1999, J Biomol Screen 4, 27-32.). Z′ values were obtained for the number of cellular aggregates and also calculated a phenotypic cell index as the product of cell number x area/Log(number of iFA aggregates+5). Secondary screening using α-SMA and collagen deposition was employed to further ensure efficacy and resolution of the iFA phenotype of the compounds. For the resolution screen, cells were seeded in a 96-well plate as mentioned above and compounds were added at day 13 to analyze their capacity to resolve the iFA phenotype using the same readouts as above. Dose response experiments were carried out as in the secondary screen but with at least 12 steps of a 1:1 dilution resulting in final compound concentrations from 500 μM to high nanomolar ranges.
The primary assay involved plating together the iPSCs and Table 1 compounds sourced from the library on day 1 on the hydrogel and examining the phenotype on day 7 of the culture as described herein. The secondary screen repeated the assay using compound sourced commercially or from additional library materials. The dose response refers to a 20 point dose course that ranges from picomolar to millimolar concentrations. […] As described herein, the cellular phenotype parameters evaluated included size, fluorescence intensity of the iFA phenotype, the shape factor of the cells/aggregates, and the cells' viability in the presence of viability dyes (Calcein AM).

iFA model = test: In situ cell elasticity by atomic force microscopy in the iFA model; type: cell-based, human; conditions: AA5 vs DMSO-treated iFA model
Description: Tapping mode AFM using the Bruker BioScope Catalyst Atomic Force coupled with Zeiss LSMS Confocal Fluorescence Microscope was used on the cells at 37° C. in cell culture media. AFM deflection images of cells were used in the imaging experiment. In the force measurement, sharp silicon nitride AFM probes (tip radius, 20 nm) were employed (Bruker Corp., USA). The spring constants of AFM tips were calibrated to be 0.10-0.11 N m^−1 and deflection sensitivities were 45-50 nm V^−1, using Thermo K Calibration (Agilent Technologies, USA). The approaching/retracting speed of the AFM tip during the force curve measurement was 6 μm s^−1. Force-distance curves were recorded to obtain cell elasticity (Young's modulus, E) of individual cells. For each time point, at least 20 single cells, 20 cells at the base of the iFA and 20 cells at the tip of the scar were measured with over 15 force-distance curves per cell to obtain significant results. The Young's modulus was calculated via the Scanning Probe Image Processor (SPIP) software (Image Metrology, Denmark) by converting the force-distance curves to force-separation curves and fitting the Sneddon variation of the Hertz model, which describes conical tips indenting elastic samples.

Q: What does the source list for `Cc1c(C(=O)Nc2nc3ccccc3s2)sc2nc3cc4c(cc3cc12)OCO4` [AA5]?
A: Total collagen of the lungs (hydroxyproline assay) ([1]; AA5 20 mg/kg systemic, days 7-21 post bleomycin, day 21, vs vehicle): significantly reduced total collagen; Type II marker pro-Surfactant Protein C (proSPC) ([1]; AA5 20 mg/kg vs vehicle, IF): qualitatively larger number; Percentage of fibrotic areas (H&E) ([1]; AA5 20 mg/kg, day 21): vehicle treated mice displayed significantly more fibrotic areas compared to the AA5 treated animals; Levels of Collagen I and α-SMA (resolution of iFA phenotype) ([2]; AA5-resolution): reduction; Reversal of fibrosis ([2]; phenotype formed over 10 days, then compounds added): Yes; Cell stiffness (iFA model): significantly decreased
